Experimental data as given in ChEMBL document CHEMBL3774317, “Design and synthesis of novel tamoxifen analogues that avoid CYP2D6 metabolism” (Eur J Med Chem, 2016).

Assays:
Assay type in all cases: functional
[1] = Cytotoxicity against human SF295 cells assessed as cell growth at 10^-8 M after 48 hrs by SRB assay; conditions: SF-295, 48 h, read-out: Activity
SR = assay: Cytotoxicity against human SR cells assessed as cell growth at 10^-4 M after 48 hrs by SRB assay; conditions: read-out: Activity
[2] = Cytotoxicity against human Hs 578T cells assessed as cell growth at 10^-4 M after 48 hrs by SRB assay; conditions: read-out: Activity
[3] = Cytotoxicity against human DU145 cells assessed as cell growth at 10^-5 M after 48 hrs by SRB assay; conditions: DU-145, 48 h, read-out: Activity
K562 [4] = assay: Cytotoxicity against human K562 cells assessed as cell growth at 10^-6 M after 48 hrs by SRB assay; conditions: K562, 48 h, read-out: Activity
[5] = Cytotoxicity against human SKOV3 cells assessed as cell growth at 10^-5 M after 48 hrs by SRB assay; conditions: SK-OV-3, 48 h, read-out: Activity
[6] = Cytotoxicity against human HCC2998 cells assessed as cell growth at 10^-6 M after 48 hrs by SRB assay; conditions: HCC 2998, 48 h, read-out: Activity
[7] = Cytotoxicity against human SNB75 cells assessed as cell growth at 10^-4 M after 48 hrs by SRB assay; conditions: SNB-75, 48 h, read-out: Activity
[8] = Cytotoxicity against human HCC2998 cells assessed as cell growth at 10^-5 M after 48 hrs by SRB assay; conditions: HCC 2998, 48 h, read-out: Activity
[9] = Cytotoxicity against human SF268 cells assessed as cell growth at 10^-5 M after 48 hrs by SRB assay; conditions: SF-268, 48 h, read-out: Activity
[10] = Cytotoxicity against human HCC2998 cells assessed as cell growth at 10^-4 M after 48 hrs by SRB assay; conditions: HCC 2998, 48 h, read-out: Activity
[11] = Cytotoxicity against human NCI-ADR-RES cells assessed as cell growth at 10^-8 M after 48 hrs by SRB assay; conditions: read-out: Activity
[12] = Cytotoxicity against human MOLT4 cells assessed as cell growth at 10^-8 M after 48 hrs by SRB assay; conditions: MOLT-4, 48 h, read-out: Activity
SK-MEL-28 = assay: Cytotoxicity against human SK-MEL-28 cells assessed as cell growth at 10^-5 M after 48 hrs by SRB assay; conditions: SK-MEL-28, 48 h, read-out: Activity
NCI-H322M = assay: Cytotoxicity against human NCI-H322M cells assessed as cell growth at 10^-4 M after 48 hrs by SRB assay; conditions: read-out: Activity
[13] = Cytotoxicity against human RPMI8226 cells assessed as cell growth at 10^-4 M after 48 hrs by SRB assay; conditions: RPMI-8226, 48 h, read-out: Activity
M14 = assay: Cytotoxicity against human M14 cells assessed as cell growth at 10^-7 M after 48 hrs by SRB assay; conditions: M14, 48 h, read-out: Activity
MDA-MB-231 [14] = assay: Cytotoxicity against human MDA-MB-231 cells assessed as cell growth at 10^-8 M after 48 hrs by SRB assay; conditions: MDA-MB-231, 48 h, read-out: Activity
A549 [15] = assay: Cytotoxicity against human A549 cells assessed as cell growth at 10^-7 M after 48 hrs by SRB assay; conditions: A549, 48 h, read-out: Activity
[16] = Cytotoxicity against human NCI-ADR-RES cells assessed as cell growth at 50 uM after 48 hrs by SRB assay; conditions: read-out: Activity
[17] = Cytotoxicity against human BT549 cells assessed as cell growth at 0.5 uM after 48 hrs by SRB assay; conditions: BT-549, 48 h, read-out: Activity
Malme-3M = assay: Cytotoxicity against human MALME-3M cells assessed as cell growth at 5 nM after 48 hrs by SRB assay; conditions: read-out: Activity
K562 [18] = assay: Cytotoxicity against human K562 cells assessed as cell growth at 5 uM after 48 hrs by SRB assay; conditions: K562, 48 h, read-out: Activity
[19] = Cytotoxicity against human OVCAR4 cells assessed as cell growth at 5 nM after 48 hrs by SRB assay; conditions: OVCAR-4, 48 h, read-out: Activity
MCF7 = assay: Cytotoxicity against human MCF7 cells assessed as cell growth at 5 nM after 48 hrs by SRB assay; conditions: MCF7, 48 h, read-out: Activity
[20] = Cytotoxicity against human RXF393 cells assessed as cell growth at 0.5 uM after 48 hrs by SRB assay; conditions: RXF 393, 48 h, read-out: Activity
A549 [21] = assay: Cytotoxicity against human A549 cells assessed as cell growth at 5 nM after 48 hrs by SRB assay; conditions: A549, 48 h, read-out: Activity
[22] = Cytotoxicity against human SNB19 cells assessed as cell growth at 0.5 uM after 48 hrs by SRB assay; conditions: SNB-19, 48 h, read-out: Activity
[23] = Cytotoxicity against human OVCAR3 cells assessed as cell growth at 50 nM after 48 hrs by SRB assay; conditions: OVCAR-3, 48 h, read-out: Activity
MDA-MB-468 = assay: Cytotoxicity against human MDA-MB-468 cells assessed as cell growth at 5 uM after 48 hrs by SRB assay; conditions: MDA-MB-468, 48 h, read-out: Activity
NCI-H522 = assay: Cytotoxicity against human NCI-H522 cells assessed as cell growth at 50 uM after 48 hrs by SRB assay; conditions: NCI-H522, 48 h, read-out: Activity
EKVX = assay: Cytotoxicity against human EKVX cells assessed as cell growth at 5 nM after 48 hrs by SRB assay; conditions: read-out: Activity
[24] = Cytotoxicity against human SF268 cells assessed as cell growth at 0.5 uM after 48 hrs by SRB assay; conditions: SF-268, 48 h, read-out: Activity
[25] = Cytotoxicity against human HOP62 cells assessed as cell growth at 50 uM after 48 hrs by SRB assay; conditions: HOP-62, 48 h, read-out: Activity
MDA-MB-231 [26] = assay: Cytotoxicity against human MDA-MB-231 cells assessed as cell growth at 50 nM after 48 hrs by SRB assay; conditions: MDA-MB-231, 48 h, read-out: Activity
ACHN [27] = assay: Cytotoxicity against human ACHN cells assessed as cell growth at 5 uM after 48 hrs by SRB assay; conditions: read-out: Activity
[28] = Cytotoxicity against human Hs 578T cells assessed as cell growth at 50 nM after 48 hrs by SRB assay; conditions: read-out: Activity
A549 [29] = assay: Cytotoxicity against human A549 cells assessed as cell growth at 5 uM after 48 hrs by SRB assay; conditions: A549, 48 h, read-out: Activity
ACHN [30] = assay: Cytotoxicity against human ACHN cells assessed as cell growth at 50 nM after 48 hrs by SRB assay; conditions: read-out: Activity
[31] = Cytotoxicity against human HOP92 cells assessed as cell growth at 50 nM after 48 hrs by SRB assay; conditions: HOP-92, 48 h, read-out: Activity
MDA-MB-231 [32] = assay: Cytotoxicity against human MDA-MB-231 cells assessed as cell growth at 5 nM after 48 hrs by SRB assay; conditions: MDA-MB-231, 48 h, read-out: Activity
[33] = Cytotoxicity against human UO31 cells assessed as cell growth at 5 nM after 48 hrs by SRB assay; conditions: UO-31, 48 h, read-out: Activity

Structure (SMILES): C/C(=C(/c1ccc(O)cc1)c1ccc(OCCN2CCCC2)cc1)c1ccccc1
- growth at 0.01 µM [1]: 87%
- growth at 100 µM (SR): -66%
- growth at 100 µM [2]: -43%
- growth at 10 µM [3]: 49%
- growth at 1 µM (K562 [4]): 81%
- growth at 10 µM [5]: 13%
- growth at 1 µM [6]: 94%
- growth at 100 µM [7]: -94%
- growth at 10 µM [8]: -25%
- growth at 10 µM [9]: 37%
- growth at 100 µM [10]: -80%
- growth at 0.01 µM [11]: 99%
- growth at 0.01 µM [12]: 102%
- growth at 10 µM (SK-MEL-28): -74%
- growth at 100 µM (NCI-H322M): -91%
- growth at 100 µM [13]: -57%
- growth at 0.1 µM (M14): 93%
- growth at 0.01 µM (MDA-MB-231 [14]): 110%
- growth at 0.1 µM (A549 [15]): 102%

Structure (SMILES): CCCCCCCCCC(=O)Oc1ccc(/C(=C(/C)c2ccccc2)c2ccc(OCCN3CCCC3)cc2)cc1
- growth at 50 µM [16]: -73%
- growth at 0.5 µM [17]: 83%
- growth at 0.005 µM (Malme-3M): 108%
- growth at 5 µM (K562 [18]): 74%
- growth at 0.005 µM [19]: 100%
- growth at 0.005 µM (MCF7): 45%
- growth at 0.5 µM [20]: 61%
- growth at 0.005 µM (A549 [21]): 101%
- growth at 0.5 µM [22]: 87%
- growth at 0.05 µM [23]: 104%
- growth at 5 µM (MDA-MB-468): 76%
- growth at 50 µM (NCI-H522): -74%
- growth at 0.005 µM (EKVX): 102%
- growth at 0.5 µM [24]: 73%
- growth at 50 µM [25]: -78%
- growth at 0.05 µM (MDA-MB-231 [26]): 105%
- growth at 5 µM (ACHN [27]): 88%
- growth at 0.05 µM [28]: 92%
- growth at 5 µM (A549 [29]): 99%
- growth at 0.05 µM (ACHN [30]): 96%
- growth at 0.05 µM [31]: 83%
- growth at 0.005 µM (MDA-MB-231 [32]): 99%
- growth at 0.005 µM [33]: 95%
